Here are results for 26 molecules from patent publication US7423158B2, “Amino-5-[4-(difluoromethoxy)phenyl]-5-phenylimidazolone compounds for the inhibition of β-secretase” (Wyeth, priority 2005, dated 2008).

A word on the melting point: it is the temperature of the solid-liquid transition.

`CN1C(=O)C(c2ccc(OC(F)F)cc2)(c2cccc(CCCCC#N)c2)N=C1N` (centres unmarked) [Example 14, 5-(3-{2-Amino-4-[4-(difluoromethoxy)phenyl]-1-methyl-5-oxo-4,5-dihydro-1H-imidazol-4-yl}phenyl)pentanenitrile] registered a melting point of 65 °C.
To `C=C(F)CCc1cccc(C2(c3ccc(OC(F)F)cc3)N=C(N)N(C)C2=O)c1` (centres unmarked) [Example 17, 2-Amino-5-[4-(difluoromethoxy)phenyl]-5-[3-(3-fluorobut-3-en-1-yl)phenyl]-3-methyl-3,5-dihydro-4H-imidazol-4-one] belongs 58 to 60 °C.
To `CN1C(=O)C(c2ccc(OC(F)F)cc2)(c2cccc(CCCC(F)F)c2)N=C1N` (centres unmarked) [Example 19, 2-Amino-5-[3-(4,4-difluorobutyl)phenyl]-5-[4-(difluoromethoxy)phenyl]-3-methyl-3,5-dihydro-4H-imidazol-4-one] belongs 54 to 57 °C; to `CN1C(=O)C(c2ccc(OC(F)F)cc2)(c2cccc(CCCCO)c2)N=C1N` (centres unmarked) [Example 21, 2-Amino-5-[4-(difluoromethoxy)phenyl]-5-[3-(4-hydroxybutyl)phenyl]-3-methyl-3,5-dihydro-4H-imidazol-4-one], 63 to 66 °C; to `COCCCc1cccc(C2(c3ccc(OC(F)F)cc3)N=C(N)N(C)C2=O)c1` (centres unmarked) [Example 24, 2-Amino-5-[4-(difluoromethoxy)phenyl]-5-[3-(3-methoxypropyl)phenyl]-3-methyl-3,5-dihydro-4H-imidazol-4-one], 48 to 50 °C.
The result for `COCCCCc1cccc(C2(c3ccc(OC(F)F)cc3)N=C(N)N(C)C2=O)c1` (centres unmarked) [Example 28, 2-amino-5-[4-(difluoromethoxy)phenyl]-5-[3-(4-methoxybutyl)phenyl]-3-methyl-3,5-dihydro-4H-imidazol-4-one] reads 36 to 39 °C; that for `CCCNC(=O)c1cccc(C2(c3ccc(OC(F)F)cc3)N=C(N)N(C)C2=O)c1` (centres unmarked) [Example 29, 3-{2-Amino-4-[4-(difluoromethoxy)phenyl]-1-methyl-5-oxo-4,5-dihydro-1H-imidazol-4-yl}-N-propylbenzamide], 93 to 96 °C.
`CN1C(=O)C(c2ccc(OC(F)F)cc2)(c2cccc(COCCF)c2)N=C1N` (centres unmarked) [Example 30, 2-Amino-5-[4-(difluoromethoxy)phenyl]-5-{3-[(2-fluoroethoxy)methyl]phenyl}-3-methyl-3,5-dihydro-4H-imidazol-4-one] showed a melting point of 40 to 43 °C.
The result for `CN1C(=O)C(c2ccc(OC(F)F)cc2)(c2cccc(COCCC(F)(F)F)c2)N=C1N` (centres unmarked) [Example 31, 2-amino-5-[4-(difluoromethoxy)phenyl]-3-methyl-5-{3-[(3,3,3-trifluoropropoxy)methyl]phenyl}-3,5-dihydro-4H-imidazol-4-one] reads 46 to 48 °C; that for `COCc1cccc(C2(c3ccc(OC(F)F)cc3)N=C(N)N(C)C2=O)c1` (centres unmarked) [Example 32, 2-amino-5-[4-(difluoromethoxy)phenyl]-5-[3-(methoxymethyl)phenyl]-3-methyl-3,5-dihydro-4H-imidazol-4-one], 70 to 72 °C.
To `CCCCOCc1cccc(C2(c3ccc(OC(F)F)cc3)N=C(N)N(C)C2=O)c1` (centres unmarked) [Example 33, 2-amino-5-[3-(butoxymethyl)phenyl]-5-[4-(difluoromethoxy)phenyl]-3-methyl-3,5-dihydro-4H-imidazol-4-one] belongs 37 to 39 °C.
In turn, `CN1C(=O)C(c2ccc(OC(F)F)cc2)(c2cccc(COCC3CC3)c2)N=C1N` (centres unmarked) [Example 34, 2-amino-5-{3-[(cyclopropylmethoxy)methyl]phenyl}-5-[4-(difluoromethoxy)phenyl]-3-methyl-3,5-dihydro-4H-imidazol-4-one] had a melting point of 47 to 50 °C.
For the molecule `CCOCc1cccc(C2(c3ccc(OC(F)F)cc3)N=C(N)N(C)C2=O)c1` (centres unmarked) [Example 35, 2-amino-5-[4-(difluoromethoxy)phenyl]-5-[3-(ethoxymethyl)phenyl]-3-methyl-3,5-dihydro-4H-imidazol-4-one], the melting point is 45 to 48 °C.
The result for `CCCOCc1cccc(C2(c3ccc(OC(F)F)cc3)N=C(N)N(C)C2=O)c1` (centres unmarked) [Example 36, 2-amino-5-[4-(difluoromethoxy)phenyl]-3-methyl-5-[3-(propoxymethyl)phenyl]-3,5-dihydro-4H-imidazol-4-one] reads 40 to 43 °C; that for `CN1C(=O)C(c2ccc(OC(F)F)cc2)(c2cccc(COC(CF)CF)c2)N=C1N` (centres unmarked) [Example 37, 2-amino-5-[4-(difluoromethoxy)phenyl]-5-(3-{[2-fluoro-1-(fluoromethyl)ethoxy]methyl}phenyl)-3-methyl-3,5-dihydro-4H-imidazol-4-one], 46 to 50 °C; that for `CN1C(=O)C(c2ccc(OC(F)F)cc2)(c2cccc(COCC(F)(F)C(F)F)c2)N=C1N` (centres unmarked) [Example 39, 2-amino-5-[4-(difluoromethoxy)phenyl]-3-methyl-5-{3-[(2,2,3,3-tetrafluoropropoxy)methyl]phenyl}-3,5-dihydro-4H-imidazol-4-one], 48 to 50 °C.
On to `CN1C(=O)C(c2ccc(OC(F)F)cc2)(c2cccc(CCF)c2)N=C1N` (centres unmarked) [Example 55, 2-Amino-5-[4-(difluoromethoxy)phenyl]-5-[3-(2-fluoroethyl)phenyl]-3-methyl-3,5-dihydro-4H-imidazol-4-one], for which the melting point was in the range of 60 to 63 °C.
To `CN1C(=O)C(c2ccc(OC(F)F)cc2)(c2cccc(OCCCF)c2)N=C1N` (centres unmarked) [Example 59, 2-Amino-5-[4-(difluoromethoxy)phenyl]-5-[3-(3-fluoropropox-1-yl)phenyl]-3-methyl-3,5-dihydro-4H-imidazol-4-one] belongs 161 to 162 °C; to `CN1C(=O)C(c2ccc(OC(F)F)cc2)(c2cccc(OCCCC(F)(F)F)c2)N=C1N` (centres unmarked) [Example 62, 2-amino-5-[4-(difluoromethoxy)phenyl]-3-methyl-5-[3-(4,4,4-trifluorobutoxy)phenyl]-3,5-dihydro-4H-imidazol-4-one], 82 to 85 °C; to `CN1C(=O)C(c2ccc(OC(F)F)cc2)(c2cccc(OCCCCF)c2)N=C1N` (centres unmarked) [Example 64, 2-amino-5-[4-(difluoromethoxy)phenyl]-5-[3-(4-fluorobutoxy)phenyl]-3-methyl-3,5-dihydro-4H-imidazol-4-one], 139 to 140 °C.
For `C=CCCc1cc(C2(c3ccc(OC(F)F)cc3)N=C(N)N(C)C2=O)ccc1F` (centres unmarked) [Example 84, 2-Amino-5-(3-but-3-en-1-yl-4fluorophenyl)-5-[4-(difluoromethoxy)phenyl]-3-methyl-3,5-dihydro-4H-imidazol-4-one], the melting point was 55 to 58 °C.
`CN1C(=O)C(c2ccc(OC(F)F)cc2)(c2cccc(C3CC(=O)C3(C)C)c2)N=C1N` (centres unmarked) [Example 87, 2-Amino-5-[4-(difluoromethoxy)phenyl]-5-[3-(2,2-dimethyl-3-oxocyclobutyl)phenyl]-3-methyl-3,5-dihydro-4H-imidazol-4-one] registered a melting point of 172 to 174 °C.
In turn, `CN1C(=O)C(c2ccc(OC(F)F)cc2)(c2cccc(C3CC(=O)C3)c2)N=C1N` (centres unmarked) [Example 88, 2-Amino-5-[4-(difluoromethoxy)phenyl]-3-methyl-5-[3-(3-oxocyclobutyl)phenyl]-3,5-dihydro-4H-imidazol-4-one] came in with a melting point of 68 to 70 °C.
In the case of `CN1C(=O)C(c2ccc(OC(F)F)cc2)(c2cccc(C3CC(O)C3)c2)N=C1N` (centres unmarked) [Example 89, 2-Amino-5-[4-(difluoromethoxy)phenyl]-5-[3-(3-hydroxycyclobutyl)phenyl]-3-methyl-3,5-dihydro-4H-imidazol-4-one], the melting point was in the range of 186 to 190 °C.
On to `CCOC(=O)C=C1CC(c2cccc(C3(c4ccc(OC(F)F)cc4)N=C(N)N(C)C3=O)c2)C1` (centres unmarked) [Example 90, Ethyl [3-(3-{2-Amino-4-[4-(difluoromethoxy)phenyl]-1-methyl-5-oxo-4,5-dihydro-1H-imidazol-4-yl}phenyl)cyclobutylidene]acetate], for which the melting point fell in the range of 78 to 80 °C.
For the molecule `COC(=O)CC1CC(c2cccc(C3(c4ccc(OC(F)F)cc4)N=C(N)N(C)C3=O)c2)C1` (centres unmarked) [Example 92, methyl [3-(3-{2-amino-4-[4-(difluoromethoxy)phenyl]-1-methyl-5-oxo-4,5-dihydro-1H-imidazol-4-yl}phenyl)cyclobutyl]acetate], the melting point is 68 to 70 °C.
